# Source: patent publication US20080227823A1, “AMIDE DERIVATIVES AS CALCIUM CHANNEL BLOCKERS” (priority 2007, published 2008)
# Key:
# Test in all cases: T-type calcium channel block, whole cell patch clamp in HEK cells
# Assay type in all cases: cell-based
# Conditions in all cases: measured at 1 μM drug, mainly non-inactivated protocol
# [1] = target: T1, human α1G T-type channels (Homo sapiens, UniProt O43497)
# T1 construct: expressed in transfected cells; host or cells: HEK 293
# Procedure: (§1) T-type calcium channel blocking activity was assayed in human embryonic kidney cells, HEK 293, stably transfected with the T-type calcium channel subunits. Briefly, cells were cultured in Dulbecco's modified eagle medium (DMEM) supplemented with 10% fetal bovine serum, 200 U/ml penicillin and 0.2 mg/ml streptomycin at 37° C. with 5% CO2. At 85% confluency cells were split with 0.25% trypsin/1 mM EDTA and plated at 10% confluency on glass coverslips. At 12 hours the medium was replaced and the cells stably transfected using a standard calcium phosphate protocol and the appropriate calcium channel cDNA's. Fresh DMEM was supplied and the cells transferred to 28° C./5% CO2. Cells were incubated for 1 to 2 days prior to whole cell recording.
# (§2) Standard patch-clamp techniques were employed to identify blockers of T-type currents. Briefly, previously described HEK cell lines stably expressing human α1G, α1H and α1I T-type channels were used for all the recordings (passage #: 4-20, 37° C., 5% CO2). Whole cell patch clamp experiments were performed using an Axopatch 200B amplifier (Axon Instruments, Burlingame, Calif.) linked to a personal computer equipped with pCLAMP software. Data were analyzed using Clampfit (Axon Instruments) and SigmaPlot 4.0 (Jandel Scientific). To obtain T-type currents, plastic dishes containing semi-confluent cells were positioned on the stage of a ZEISS AXIOVERT S100 microscope after replacing the culture medium with external solution (see below). Whole-cell patches were obtained using pipettes (borosilicate glass with filament, O.D.: 1.5 mm, I.D.: 0.86 mm, 10 cm length), fabricated on a SUTTER P-97 puller with resistance values of ˜5 MΩ (see below for internal solution).
# (§3) T-type currents were reliably obtained by using two voltage protocols: • (1) “non-inactivating”, and • (2) “inactivation”
# (§4) In the non-inactivating protocol, the holding potential is set at −110 mV and with a pre-pulse at −100 mV for 1 second prior to the test pulse at −40 mV for 50 ms. In the inactivation protocol, the pre-pulse is at approximately −85 mV for 1 second, which inactivates about 15% of the T-type channels.
# (§5) Test compounds were dissolved in external solution, 0.1-0.01% DMSO. After 10 min rest, they were applied by gravity close to the cell using a WPI microfil tubing. The “non-inactivated” pre-pulse was used to examine the resting block of a compound. The “inactivated” protocol was employed to study voltage-dependent block. However, the initial data shown below were mainly obtained using the non-inactivated protocol only. Kd values are shown for various compounds of the invention in Table 4 measured at 1 μM for the drug of interest except for compound 18 which was measured at 200 nM.
# [2] = target: T2, human α1I T-type channels (Homo sapiens, UniProt Q9P0X4)
# T2 construct: expressed in transfected cells; host or cells: HEK 293
# Procedure: as §1, §2, §3, §4, §5
# [3] = target: T3, human α1H T-type channels (Homo sapiens, UniProt O95180)
# T3 construct: expressed in transfected cells; host or cells: HEK 293
# Procedure: as §1, §2, §3, §4, §5
# T1 sequence (O43497 whole entry): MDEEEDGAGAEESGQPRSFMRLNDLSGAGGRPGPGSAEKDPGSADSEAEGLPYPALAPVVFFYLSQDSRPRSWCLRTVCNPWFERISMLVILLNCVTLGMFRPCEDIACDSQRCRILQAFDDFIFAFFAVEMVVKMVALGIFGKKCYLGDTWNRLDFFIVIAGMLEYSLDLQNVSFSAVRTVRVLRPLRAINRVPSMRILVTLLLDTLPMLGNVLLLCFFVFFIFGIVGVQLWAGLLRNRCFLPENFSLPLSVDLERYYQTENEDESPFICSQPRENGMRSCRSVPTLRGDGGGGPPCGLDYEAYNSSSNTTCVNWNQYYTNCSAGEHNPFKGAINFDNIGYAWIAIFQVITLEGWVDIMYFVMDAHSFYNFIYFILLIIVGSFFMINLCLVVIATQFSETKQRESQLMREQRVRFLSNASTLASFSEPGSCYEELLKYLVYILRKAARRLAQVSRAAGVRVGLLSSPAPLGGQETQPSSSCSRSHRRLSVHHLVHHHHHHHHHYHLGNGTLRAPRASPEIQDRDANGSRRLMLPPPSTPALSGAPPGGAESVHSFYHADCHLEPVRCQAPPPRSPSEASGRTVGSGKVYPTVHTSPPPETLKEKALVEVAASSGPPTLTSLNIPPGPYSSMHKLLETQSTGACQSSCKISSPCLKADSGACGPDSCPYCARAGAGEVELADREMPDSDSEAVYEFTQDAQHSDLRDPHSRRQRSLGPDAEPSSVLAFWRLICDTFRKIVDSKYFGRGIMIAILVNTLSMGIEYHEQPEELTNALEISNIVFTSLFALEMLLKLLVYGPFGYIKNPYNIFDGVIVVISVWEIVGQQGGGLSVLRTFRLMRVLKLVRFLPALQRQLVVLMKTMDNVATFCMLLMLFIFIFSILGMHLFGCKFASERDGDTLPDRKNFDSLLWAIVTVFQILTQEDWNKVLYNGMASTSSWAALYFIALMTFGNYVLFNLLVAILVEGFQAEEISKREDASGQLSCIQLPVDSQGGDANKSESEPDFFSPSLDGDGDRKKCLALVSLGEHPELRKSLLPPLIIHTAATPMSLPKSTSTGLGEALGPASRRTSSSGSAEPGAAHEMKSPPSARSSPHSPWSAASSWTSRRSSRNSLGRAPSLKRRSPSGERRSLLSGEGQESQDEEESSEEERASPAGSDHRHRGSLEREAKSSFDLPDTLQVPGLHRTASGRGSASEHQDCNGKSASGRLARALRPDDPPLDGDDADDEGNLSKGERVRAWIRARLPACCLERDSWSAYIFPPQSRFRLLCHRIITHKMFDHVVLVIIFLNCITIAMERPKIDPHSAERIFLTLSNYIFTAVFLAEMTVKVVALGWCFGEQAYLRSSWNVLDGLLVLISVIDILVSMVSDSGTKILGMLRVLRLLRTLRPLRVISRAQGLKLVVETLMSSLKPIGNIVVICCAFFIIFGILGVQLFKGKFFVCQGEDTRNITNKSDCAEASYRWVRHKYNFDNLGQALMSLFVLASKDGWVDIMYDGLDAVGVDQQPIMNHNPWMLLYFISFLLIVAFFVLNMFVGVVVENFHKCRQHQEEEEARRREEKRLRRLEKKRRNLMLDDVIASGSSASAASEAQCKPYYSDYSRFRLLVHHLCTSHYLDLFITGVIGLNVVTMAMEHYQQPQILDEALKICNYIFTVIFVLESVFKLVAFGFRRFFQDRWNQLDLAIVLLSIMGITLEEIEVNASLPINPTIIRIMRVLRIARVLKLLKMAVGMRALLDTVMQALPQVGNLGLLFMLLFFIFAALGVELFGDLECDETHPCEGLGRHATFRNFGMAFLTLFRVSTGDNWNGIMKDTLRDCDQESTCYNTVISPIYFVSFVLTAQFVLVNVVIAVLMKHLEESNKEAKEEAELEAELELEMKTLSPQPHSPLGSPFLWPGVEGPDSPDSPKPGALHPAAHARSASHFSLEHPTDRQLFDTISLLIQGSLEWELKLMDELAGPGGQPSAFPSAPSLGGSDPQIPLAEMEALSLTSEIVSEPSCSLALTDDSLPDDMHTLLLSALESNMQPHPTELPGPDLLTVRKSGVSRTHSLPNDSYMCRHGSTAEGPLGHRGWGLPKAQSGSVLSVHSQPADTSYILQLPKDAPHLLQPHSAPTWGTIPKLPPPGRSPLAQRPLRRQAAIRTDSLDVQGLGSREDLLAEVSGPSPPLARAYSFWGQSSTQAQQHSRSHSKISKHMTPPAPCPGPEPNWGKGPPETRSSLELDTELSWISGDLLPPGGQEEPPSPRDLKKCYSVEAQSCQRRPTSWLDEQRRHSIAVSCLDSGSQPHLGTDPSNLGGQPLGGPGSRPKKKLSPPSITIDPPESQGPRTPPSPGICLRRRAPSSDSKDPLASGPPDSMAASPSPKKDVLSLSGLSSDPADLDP
# T3 sequence (O95180 whole entry): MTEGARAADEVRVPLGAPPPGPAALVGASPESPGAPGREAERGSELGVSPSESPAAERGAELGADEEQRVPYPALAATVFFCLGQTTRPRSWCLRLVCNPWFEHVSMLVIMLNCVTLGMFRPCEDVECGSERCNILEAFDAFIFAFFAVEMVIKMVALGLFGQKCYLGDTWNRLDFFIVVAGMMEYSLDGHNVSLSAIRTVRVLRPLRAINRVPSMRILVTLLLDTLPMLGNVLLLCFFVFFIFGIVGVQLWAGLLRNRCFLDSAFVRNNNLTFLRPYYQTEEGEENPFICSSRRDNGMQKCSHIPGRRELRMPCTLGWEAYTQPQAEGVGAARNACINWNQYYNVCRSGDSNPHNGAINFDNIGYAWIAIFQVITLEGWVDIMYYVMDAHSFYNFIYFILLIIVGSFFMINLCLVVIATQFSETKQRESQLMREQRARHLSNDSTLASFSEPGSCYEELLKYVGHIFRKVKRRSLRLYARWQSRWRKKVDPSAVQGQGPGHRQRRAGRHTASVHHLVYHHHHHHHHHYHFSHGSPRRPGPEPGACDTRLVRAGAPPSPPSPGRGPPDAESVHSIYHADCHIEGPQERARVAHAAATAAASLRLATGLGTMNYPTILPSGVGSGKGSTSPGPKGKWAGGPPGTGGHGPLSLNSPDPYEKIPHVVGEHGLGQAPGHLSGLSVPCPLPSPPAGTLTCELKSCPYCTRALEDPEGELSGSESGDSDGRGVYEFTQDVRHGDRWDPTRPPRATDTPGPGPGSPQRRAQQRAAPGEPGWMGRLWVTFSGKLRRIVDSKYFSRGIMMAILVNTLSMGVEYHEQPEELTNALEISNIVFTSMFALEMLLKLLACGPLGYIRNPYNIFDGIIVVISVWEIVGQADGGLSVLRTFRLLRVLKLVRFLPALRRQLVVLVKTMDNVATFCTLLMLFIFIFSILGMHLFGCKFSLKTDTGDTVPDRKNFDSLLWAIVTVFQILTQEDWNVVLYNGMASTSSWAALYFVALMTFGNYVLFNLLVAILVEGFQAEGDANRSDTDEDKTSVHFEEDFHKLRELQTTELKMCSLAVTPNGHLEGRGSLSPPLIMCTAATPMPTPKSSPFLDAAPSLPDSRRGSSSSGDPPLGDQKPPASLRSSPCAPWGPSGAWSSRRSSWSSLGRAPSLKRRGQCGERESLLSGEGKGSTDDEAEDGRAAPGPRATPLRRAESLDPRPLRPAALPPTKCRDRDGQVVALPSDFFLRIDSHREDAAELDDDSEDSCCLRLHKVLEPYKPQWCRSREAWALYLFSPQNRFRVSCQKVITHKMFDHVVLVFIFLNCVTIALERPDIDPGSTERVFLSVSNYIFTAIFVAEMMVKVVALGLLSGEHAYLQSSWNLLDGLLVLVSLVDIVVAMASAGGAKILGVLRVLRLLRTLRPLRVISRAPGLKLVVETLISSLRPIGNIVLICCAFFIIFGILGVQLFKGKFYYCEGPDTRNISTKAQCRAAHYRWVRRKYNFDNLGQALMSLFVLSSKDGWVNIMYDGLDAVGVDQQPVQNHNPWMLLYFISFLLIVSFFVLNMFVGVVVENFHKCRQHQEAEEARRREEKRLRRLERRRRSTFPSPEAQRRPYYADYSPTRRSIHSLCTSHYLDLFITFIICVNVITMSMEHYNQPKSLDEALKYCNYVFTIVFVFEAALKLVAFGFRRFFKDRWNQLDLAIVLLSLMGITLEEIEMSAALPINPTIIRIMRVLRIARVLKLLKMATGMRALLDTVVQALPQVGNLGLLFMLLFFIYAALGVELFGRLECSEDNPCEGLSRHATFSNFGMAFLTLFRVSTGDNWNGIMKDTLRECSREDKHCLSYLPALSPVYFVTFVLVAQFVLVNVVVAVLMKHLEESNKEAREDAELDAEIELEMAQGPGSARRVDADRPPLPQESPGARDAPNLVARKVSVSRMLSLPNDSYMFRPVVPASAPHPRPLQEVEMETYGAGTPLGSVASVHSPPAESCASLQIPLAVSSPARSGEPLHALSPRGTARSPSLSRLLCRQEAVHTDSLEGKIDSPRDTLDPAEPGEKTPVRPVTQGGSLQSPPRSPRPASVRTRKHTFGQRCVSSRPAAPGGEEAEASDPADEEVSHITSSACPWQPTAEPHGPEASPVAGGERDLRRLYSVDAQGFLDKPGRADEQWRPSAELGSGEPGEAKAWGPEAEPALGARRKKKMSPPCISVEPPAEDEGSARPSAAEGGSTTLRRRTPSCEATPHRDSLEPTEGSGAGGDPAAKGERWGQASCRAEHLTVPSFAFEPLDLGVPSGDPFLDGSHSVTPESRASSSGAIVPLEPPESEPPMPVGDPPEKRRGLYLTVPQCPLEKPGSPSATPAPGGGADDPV
Structure (SMILES),Kd [1],Kd [2],Kd [3]
"O=C(NCCc1c[nH]c2ccc(F)cc12)C1CCCN1C(=O)/C=C/c1ccc(F)c(Br)c1 (stereo in doubt) [Compound 19, (R,E)-1-(3-(3-bromo-4-fluorophenyl)acryloyl)-N-(2-(5-fluoro-1H-indol-3-yl)ethyl)pyrrolidine-2-carboxamide]",1.35 µM,,
"CC(=O)N1CCC(NC(=O)/C=C/c2ccc(F)c(Br)c2)(C(=O)NCCc2c[nH]c3ccc(F)cc23)CC1 [Compound 21, (E)-1-acetyl-4-(3-(3-bromo-4-fluorophenyl)acrylamido)-N-(2-(5-fluoro-1H-indol-3-yl)ethyl)piperidine-4-carboxamide]",2.62 µM,,
"COCCC(=O)N1CCC(NC(=O)/C=C/c2ccc(F)c(Br)c2)(C(=O)NCCc2c[nH]c3ccc(F)cc23)CC1 [Compound 25, (E)-4-(3-(3-bromo-4-fluorophenyl)acrylamido)-N-(2-(5-fluoro-1H-indol-3-yl)ethyl)-1-(3-methoxypropanoyl)piperidine-4-carboxamide]",5.37 µM,,
"CCNC(=O)N1CCC(NC(=O)/C=C/c2ccc(F)c(Br)c2)(C(=O)NCCc2c[nH]c3ccc(F)cc23)CC1 [Compound 26, (E)-4-(3-(3-bromo-4-fluorophenyl)acrylamido)-N1-ethyl-N4-(2-(5-fluoro-1H-indol-3-yl)ethyl)piperidine-1,4-dicarboxamide]",0.55 µM,,
"O=C(/C=C/c1ccc(F)cc1)NC1(C(=O)Nc2cccc(C(F)(F)F)c2)CCNCC1 [Compound 33, (E)-4-(3-(4-fluorophenyl)acrylamido)-N-(3-(trifluoromethyl)phenyl)piperidine-4-carboxamide]",2.45 µM,,
"O=C(/C=C/c1ccc(F)c(F)c1)NC1(C(=O)Nc2ccccc2)CCNCC1 [Compound 34, (E)-4-(3-(3,4-difluorophenyl)acrylamido)-N-phenylpiperidine-4-carboxamide]",3.29 µM,,
"O=C(/C=C/c1ccc(F)cc1)NC1(C(=O)Nc2ccccc2C(F)(F)F)CCNCC1 [Compound 46, (E)-4-(3-(4-fluorophenyl)acrylamido)-N-(2-(trifluoromethyl)phenyl)piperidine-4-carboxamide]",14.6 µM,,
"CN(CCc1c[nH]c2ccc(F)cc12)C(=O)C1(NC(=O)/C=C/c2ccc(F)cc2)CCNCC1 [Compound 49, (E)-N-(2-(5-fluoro-1H-indol-3-yl)ethyl)-4-(3-(4-fluorophenyl)acrylamido)-N-methylpiperidine-4-carboxamide]",0.58 µM,,
"O=C(/C=C/c1ccc(F)cc1)NC1(C(=O)Nc2cc(C(F)(F)F)cc(C(F)(F)F)c2)CCC(O)CC1 (stereo not drawn) [Compound 56, (E)-N-(3,5-bis(trifluoromethyl)phenyl)-1-(3-(4-fluorophenyl)acrylamido)-4-hydroxycyclohexanecarboxamide]",1.06 µM,,
"COCCOC1CCC(NC(=O)/C=C/c2ccc(F)cc2)(C(=O)Nc2cc(C(F)(F)F)cc(C(F)(F)F)c2)CC1 (stereo not drawn) [Compound 61, (E)-N-(3,5-bis(trifluoromethyl)phenyl)-1-(3-(4-fluorophenyl)acrylamido)-4-(2-methoxyethoxy)cyclohexanecarboxamide]",0.99 µM,,
"CN(CCc1c[nH]c2ccc(F)cc12)C(=O)C1(NC(=O)/C=C/c2ccc(F)cc2)CCN(CC(N)=O)CC1 [Compound 65, (E)-1-(2-amino-2-oxoethyl)-N-(2-(5-fluoro-1H-indol-3-yl)ethyl)-4-(3-(4-fluorophenyl)acrylamido)-N-methylpiperidine-4-carboxamide]",2.57 µM,,
"CC(C)(O)C(=O)N1CCC(NC(=O)/C=C/c2ccc(F)cc2)(C(=O)Nc2cc(C(F)(F)F)cc(C(F)(F)F)c2)CC1 [Compound 66, (E)-N-(3,5-bis(trifluoromethyl)phenyl)-4-(3-(4-fluorophenyl)acrylamido)-1-(2-hydroxy-2-methylpropanoyl)piperidine-4-carboxamide]",1.63 µM,,
"CN(CCc1c[nH]c2ccc(F)cc12)C(=O)C1(NC(=O)/C=C/c2ccc(F)cc2)CCN(C(=O)CN)CC1 [Compound 67, (E)-1-(2-aminoacetyl)-N-(2-(5-fluoro-1H-indol-3-yl)ethyl)-4-(3-(4-fluorophenyl)acrylamido)-N-methylpiperidine-4-carboxamide]",1.02 µM,,
"CC(C)(O)CN1CCC(NC(=O)/C=C/c2ccc(F)cc2)(C(=O)NCCc2c[nH]c3ccc(F)cc23)CC1 [Compound 69, (E)-N-(2-(5-fluoro-1H-indol-3-yl)ethyl)-4-(3-(4-fluorophenyl)acrylamido)-1-(2-hydroxy-2-methylpropyl)piperidine-4-carboxamide]",3.63 µM,,

# Stronger by Kd [1], values ahead:
Kd [1],Kd [2],Kd [3],Structure (SMILES)
0.43 µM,,,"O=C(/C=C/c1ccc(F)c(Br)c1)NC1(C(=O)NCCc2c[nH]c3ccc(F)cc23)CCOCC1 [Compound 16, (E)-4-(3-(3-bromo-4-fluorophenyl)acrylamido)-N-(2-(5-fluoro-1H-indol-3-yl)ethyl)tetrahydro-2H-pyran-4-carboxamide]"
0.36 µM,0.48 µM,,"CC(C)(NC(=O)/C=C/c1ccc(F)c(Br)c1)C(=O)NCCc1c[nH]c2ccc(F)cc12 [Compound 15, (E)-3-(3-bromo-4-fluorophenyl)-N-(1-(2-(5-fluoro-1H-indol-3-yl)ethylamino)-2-methyl-1-oxopropan-2-yl)acrylamide]"
0.32 µM,,1.61 µM,"O=C(/C=C/c1ccc(F)cc1)NC1(C(=O)Nc2cc(Cl)cc(Cl)c2)CCNCC1 [Compound 44, (E)-N-(3,5-dichlorophenyl)-4-(3-(4-fluorophenyl)acrylamido)piperidine-4-carboxamide]"
0.28 µM,,,"NC(=O)CN1CCC(NC(=O)/C=C/c2ccc(F)cc2)(C(=O)Nc2cc(C(F)(F)F)cc(C(F)(F)F)c2)CC1 [Compound 62, (E)-1-(2-amino-2-oxoethyl)-N-(3,5-bis(trifluoromethyl)phenyl)-4-(3-(4-fluorophenyl)acrylamido)piperidine-4-carboxamide]"
0.22 µM,,41.9 µM,"CN1CCC(NC(=O)/C=C/c2ccc(F)cc2)(C(=O)Nc2cc(C(F)(F)F)cc(C(F)(F)F)c2)CC1 [Compound 42, (E)-N-(3,5-bis(trifluoromethyl)phenyl)-4-(3-(4-fluorophenyl)acrylamido)-1-methylpiperidine-4-carboxamide]"
0.21 µM,,6.32 µM,"O=C(/C=C/c1ccc(F)cc1)NC1(C(=O)Nc2cc(C(F)(F)F)cc(C(F)(F)F)c2)CCN(C2CCOCC2)CC1 [Compound 54, (E)-N-(3,5-bis(trifluoromethyl)phenyl)-4-(3-(4-fluorophenyl)acrylamido)-1-(tetrahydro-2H-pyran-4-yl)piperidine-4-carboxamide]"
0.16 µM,,,"O=C(/C=C/c1ccc(F)cc1)NC1(C(=O)Nc2cc(C(F)(F)F)cc(C(F)(F)F)c2)CCN(c2ncccn2)CC1 [Compound 52, (E)-N-(3,5-bis(trifluoromethyl)phenyl)-4-(3-(4-fluorophenyl)acrylamido)-1-(pyrimidin-2-yl)piperidine-4-carboxamide]"
0.13 µM,,2.42 µM,"O=C(/C=C\c1ccccc1)NC1(C(=O)Nc2cc(C(F)(F)F)cc(C(F)(F)F)c2)CCNCC1 [Compound 40, (Z)-N-(3,5-bis(trifluoromethyl)phenyl)-4-(3-phenylacrylamido)piperidine-4-carboxamide]"
0.13 µM,,,"COCCN1CCC(NC(=O)/C=C/c2ccc(F)cc2)(C(=O)Nc2cc(C(F)(F)F)cc(C(F)(F)F)c2)CC1 [Compound 57, (E)-N-(3,5-bis(trifluoromethyl)phenyl)-4-(3-(4-fluorophenyl)acrylamido)-1-(2-methoxyethyl)piperidine-4-carboxamide]"
0.09 µM,,,"NCC(=O)N1CCC(NC(=O)/C=C/c2ccc(F)cc2)(C(=O)Nc2cc(C(F)(F)F)cc(C(F)(F)F)c2)CC1 [Compound 63, (E)-1-(2-aminoacetyl)-N-(3,5-bis(trifluoromethyl)phenyl)-4-(3-(4-fluorophenyl)acrylamido)piperidine-4-carboxamide]"
0.08 µM,,1.12 µM,"Cc1cc(/C=C/C(=O)NC2(C(=O)Nc3cc(C(F)(F)F)cc(C(F)(F)F)c3)CCN(C)CC2)ccc1F [Compound 43, (E)-N-(3,5-bis(trifluoromethyl)phenyl)-4-(3-(4-fluoro-3-methylphenyl)acrylamido)-1-methylpiperidine-4-carboxamide]"
0.08 µM,,2.97 µM,"O=C(/C=C/c1ccc(F)c(F)c1)NC1(C(=O)Nc2ccccc2Oc2ccccc2)CCNCC1 [Compound 50, (E)-4-(3-(3,4-difluorophenyl)acrylamido)-N-(2-phenoxyphenyl)piperidine-4-carboxamide]"
